Assay results: ChEMBL document CHEMBL1126821, “A systematic evaluation of the inhibition of HIV-1 protease by its C- and N-terminal peptides” (Bioorg Med Chem Lett, 1993)
Residues, ends and D or L forms follow the SMILES beside them.

Molecular target: Human immunodeficiency virus type 1 protease (Human immunodeficiency virus 1) (UniProt Q72874)
Assay: Inhibitory activity against HIV-1 protease at 100 uM

Structure (SMILES) | inhibition [%]
CC(=O)NCC(=O)N[C@@H](CO)C(=O)N[C@H](C(=O)N[C@@H](CC(C)C)C(=O)N[C@@H](CC(N)=O)C(=O)N[C@@H](Cc1ccccc1)C(=O)O)[C@@H](C)O (Ac-GSTLNF-OH) | 4.6
CC[C@H](C)[C@H](NC(C)=O)C(=O)NCC(=O)N[C@@H](CO)C(=O)N[C@H](C(=O)N[C@@H](CC(C)C)C(=O)N[C@@H](CC(N)=O)C(=O)N[C@@H](Cc1ccccc1)C(=O)O)[C@@H](C)O (Ac-IGSTLNF-OH) | 12.6
CC[C@H](C)[C@H](NC(=O)[C@H](CCC(N)=O)NC(=O)[C@@H]1CCCN1C(C)=O)C(=O)N[C@H](C(=O)N[C@@H](CC(C)C)C(=O)O)[C@@H](C)O (Ac-PQITL-OH) | -1.4
CC[C@H](C)[C@H](NC(=O)[C@H](CCC(N)=O)NC(=O)[C@@H]1CCCN1C(C)=O)C(=O)N[C@H](C(=O)N[C@@H](CC(C)C)C(=O)N[C@@H](Cc1c[nH]c2ccccc12)C(=O)O)[C@@H](C)O (Ac-PQITLW-OH) | 28.1
CC[C@H](C)[C@H](NC(=O)[C@H](CCC(N)=O)NC(=O)[C@@H]1CCCN1C(C)=O)C(=O)N[C@H](C(=O)N[C@@H](CC(C)C)C(=O)N[C@@H](Cc1c[nH]c2ccccc12)C(=O)N[C@@H](CCC(N)=O)C(=O)O)[C@@H](C)O (Ac-PQITLWQ-OH) | 26
CC[C@H](C)[C@H](NC(=O)[C@H](CCC(N)=O)NC(C)=O)C(=O)NCC(=O)N[C@@H](CO)C(=O)N[C@H](C(=O)N[C@@H](CC(C)C)C(=O)N[C@@H](CC(N)=O)C(=O)N[C@@H](Cc1ccccc1)C(=O)O)[C@@H](C)O (Ac-QIGSTLNF-OH) | 34.6
CC(=O)N[C@@H](CO)C(=O)N[C@H](C(=O)N[C@@H](CC(C)C)C(=O)N[C@@H](CC(N)=O)C(=O)N[C@@H](Cc1ccccc1)C(=O)O)[C@@H](C)O (Ac-STLNF-OH) | 37.2
CC(=O)N[C@H](C(=O)N[C@@H](CC(C)C)C(=O)N[C@@H](CC(N)=O)C(=O)N[C@@H](Cc1ccccc1)C(=O)O)[C@@H](C)O (Ac-TLNF-OH) | 3.9
CC[C@H](C)[C@H](NC(=O)[C@H](CCC(N)=O)NC(=O)[C@@H]1CCCN1)C(=O)N[C@H](C(=O)N[C@@H](CC(C)C)C(=O)O)[C@@H](C)O (H-PQITL-OH) | 5.6
CC[C@H](C)[C@H](NC(=O)[C@H](CCC(N)=O)NC(=O)[C@@H]1CCCN1)C(=O)N[C@H](C(=O)N[C@@H](CC(C)C)C(=O)N[C@@H](Cc1c[nH]c2ccccc12)C(=O)O)[C@@H](C)O (H-PQITLW-OH) | 39.9
CC[C@H](C)[C@H](NC(=O)[C@H](CCC(N)=O)NC(=O)[C@@H]1CCCN1)C(=O)N[C@H](C(=O)N[C@@H](CC(C)C)C(=O)N[C@@H](Cc1c[nH]c2ccccc12)C(=O)N[C@@H](CCC(N)=O)C(=O)O)[C@@H](C)O (H-PQITLWQ-OH) | 1.3
